Source: patent US11173170B2, “Prebiotic composition and its methods of production” (Optibiotix Limited, priority 2014, dated 2021)

Legend:
Assay in all cases: Anaerobic cultures, gut bacterial groups by fluorescent in situ hybridisation at 24 hours
Assay type in all cases: cell-based
Clostridia = settings: for Clostridia count, 24: 24 hours, anaerobic culture, inoculum 7.55; for Clostridia, 24 hr % change: 24 hr vs inoculum
Protocol: (§1) In these experiments, anaerobic cultures were tested to evaluate the in vitro utilisation of a novel Lactobacillus reuteri galactooligosaccharide by monitoring the populations of gut bacterial groups at 24 hours using fluorescent in situ hybridisation, and short-chain fatty acid (SCFA). Fructooligosaccharides (FOS), melibiose and raffinose were used as reference carbohydrates.

Lactobacilli = tested on: Lactobacilli
Protocol: as §1

Bacteroides = tested on: Bacteroides
Protocol: as §1

E. coli = tested on: E. coli
Protocol: as §1

Total count = tested on: Total count
Protocol: as §1

Bifidobacteria = tested on: Bifidobacteria
Protocol: as §1

Eubacteria = tested on: Eubacteria
Protocol: as §1

SMILES	Clostridia count, 24 (Clostridia)	Clostridia, 24 hr % change (Clostridia)	Lactobacilli count, 24 (Lactobacilli; 24 hours, anaerobic culture, inoculum 7.15)	Lactobacilli, 24 hr % change (Lactobacilli; 24 hr vs inoculum)	Bacteroides count, 24 (Bacteroides; 24 hours, anaerobic culture, inoculum 7.98)	Bacteroides, 24 hr % change (Bacteroides; 24 hr vs inoculum)	E. coli count, 24 (E. coli; 24 hours, anaerobic culture, inoculum 8.14)	E. coli, 24 hr % change (E. coli; 24 hr vs inoculum)	Total count, 24 (Total count; 24 hours, anaerobic culture, inoculum 8.84)	Total count, 24 hr % change (Total count; 24 hr vs inoculum)	Bifidobacteria count, 24 (Bifidobacteria; 24 hours, anaerobic culture, inoculum 6.85)	Bifidobacteria, 24 hr % change (Bifidobacteria; 24 hr vs inoculum)	Eubacteria count, 24 (Eubacteria; 24 hours, anaerobic culture, inoculum 8.06)	Eubacteria, 24 hr % change (Eubacteria; 24 hr vs inoculum)
OC[C@H]1O[C@H](OCC2O[C@@H](O)[C@H](O)[C@@H](O)[C@@H]2O)[C@H](O)[C@@H](O)[C@H]1O (stereo partly shown) [Melibiose, melibiose]	7.65	101%	7.43	104%	7.9	99%	7.66	94%	9.14	103%	7.33	107%	7.84	97%
OC[C@H]1O[C@H](OC[C@H]2O[C@H](O[C@]3(CO)O[C@H](CO)[C@@H](O)[C@@H]3O)[C@H](O)[C@@H](O)[C@@H]2O)[C@H](O)[C@@H](O)[C@H]1O [Raffinose, raffinose]	7.81	103%												
